Test results reported in the supplement of paper PMC8149375.

Columns and labels:
Conditions in all cases: treatment: drug alone; 5 days
786-O [1] = assay: GI50, drug alone; higher = less potent
Description: (§1)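 Primary HTS: 8 RCC cell lines treated with 8 doses (up to 10 uM) of each library drug alone for 5 days; viability read by CellTiter-Glo and normalised to DMSO. GI50 was fitted with XLfit (4-parameter), AUC is the area under the dose-response curve, and minimum viability is the lowest fraction of DMSO viability across doses.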

ACHN [2] = assay: GI50, drug alone; higher = less potent
Description: as §1

SN12C [3] = assay: GI50, drug alone; higher = less potent
Description: as §1

A498 [4] = assay: GI50, drug alone; higher = less potent
Description: as §1

CAKI-1 [5] = assay: GI50, drug alone; higher = less potent
Description: as §1

TK-10 [6] = assay: GI50, drug alone; higher = less potent
Description: as §1

769-P [7] = assay: GI50, drug alone; higher = less potent
Description: as §1

UO-31 [8] = assay: GI50, drug alone; higher = less potent
Description: as §1

786-O [9] = assay: AUC of dose-response viability curve, drug alone (arbitrary (AUC of normalised viability)); higher = less growth inhibition
Description: as §1

ACHN [10] = assay: as above
Description: as §1

SN12C [11] = assay: as above
Description: as §1

A498 [12] = assay: as above
Description: as §1

CAKI-1 [13] = assay: as above
Description: as §1

TK-10 [14] = assay: as above
Description: as §1

769-P [15] = assay: as above
Description: as §1

UO-31 [16] = assay: as above
Description: as §1

786-O [17] = assay: minimum viability across doses, drug alone, relative to DMSO (fraction); higher = less growth inhibition
Description: as §1

ACHN [18] = assay: as above
Description: as §1

SN12C [19] = assay: as above
Description: as §1

A498 [20] = assay: as above
Description: as §1

CAKI-1 [21] = assay: as above
Description: as §1

TK-10 [22] = assay: as above
Description: as §1

769-P [23] = assay: as above
Description: as §1

UO-31 [24] = assay: as above
Description: as §1

| SMILES | GI50, drug alone (786-O [1]) [µM] | GI50, drug alone (ACHN [2]) [µM] | GI50, drug alone (SN12C [3]) [µM] | GI50, drug alone (A498 [4]) [µM] | GI50, drug alone (CAKI-1 [5]) [µM] | GI50, drug alone (TK-10 [6]) [µM] | GI50, drug alone (769-P [7]) [µM] | GI50, drug alone (UO-31 [8]) [µM] | AUC of dose-response viability curve (786-O [9]) | AUC of dose-response viability curve (ACHN [10]) | AUC of dose-response viability curve (SN12C [11]) | AUC of dose-response viability curve (A498 [12]) | AUC of dose-response viability curve (CAKI-1 [13]) | AUC of dose-response viability curve (TK-10 [14]) | AUC of dose-response viability curve (769-P [15]) | AUC of dose-response viability curve (UO-31 [16]) | minimum viability across doses (786-O [17]) | minimum viability across doses (ACHN [18]) | minimum viability across doses (SN12C [19]) | minimum viability across doses (A498 [20]) | minimum viability across doses (CAKI-1 [21]) | minimum viability across doses (TK-10 [22]) | minimum viability across doses (769-P [23]) | minimum viability across doses (UO-31 [24]) |
| --- | --- | --- | --- | --- | --- | --- | --- | --- | --- | --- | --- | --- | --- | --- | --- | --- | --- | --- | --- | --- | --- | --- | --- | --- |
| Oc1ccc(-c2nc(-c3ccc(F)cc3)c(-c3ccncc3)[nH]2)cc1 | > 10 | 9.97 | > 10 | > 10 | > 10 | > 10 | > 10 | > 10 | 3.04 | 2.91 | 3.4 | 4.09 | 3.25 | 2.88 | 3.41 | 4.47 | 0.65 | 0.473 | 0.936 | 1.02 | 0.637 | 0.659 | 0.904 | 0.308 |
| Cn1cc(C2=C(c3ccc(Cl)cc3Cl)C(=O)NC2=O)c2ccccc21 | > 10 | > 10 | > 10 | > 10 | > 10 | > 10 | 8.53 | > 10 | 3.26 | 3.26 | 3.43 | 3.79 | 0.987 | 3.26 | 3.2 | 3.98 | 0.814 | 0.821 | 0.908 | 0.907 | 0.839 | 0.629 | 0.386 | 0.801 |
| O=C1NCCc2[nH]c(-c3ccncc3)cc21 | 0.539 | 1.67 | 3.68 | 3.53 | 4.96 | 3.62 | > 10 | 2.46 | 2.22 | 2.7 | 3.27 | 3.22 | 3.31 | 2.88 | 3.24 | 3.43 | 0.00414 | 0.0193 | 0.0279 | 0.0125 | 0.12 | 0.188 | 0.75 | 0.00654 |
| Cc1[nH]c(/C=C2\C(=O)Nc3ccc(S(=O)(=O)Cc4c(Cl)cccc4Cl)cc32)c(C)c1C(=O)N1CCC[C@@H]1CN1CCCC1 | 4.16 | 3.83 | 4.02 | 8.15 | 3.83 | 4.44 | 4.02 | > 10 | 2.86 | 3.18 | 2.93 | 3.88 | 3.17 | 3.12 | 2.89 | 4.41 | 0.0112 | 0.00233 | 0.00551 | 0.0127 | 0.00618 | 0.00282 | 0.00582 | 0.0156 |
| N#CC[C@H](C1CCCC1)n1cc(-c2ncnc3[nH]ccc23)cn1 | 8.76 | > 10 | > 10 | > 10 | > 10 | > 10 | > 10 | > 10 | 3.06 | 3.14 | 3.53 | 4.75 | 3.82 | 3.2 | 3.4 | 4.92 | 0.433 | 0.779 | 0.945 | 1.24 | 0.965 | 0.833 | 0.876 | 1.25 |
| CN(C)C1CCN(C(=O)c2ccc(NC(=O)Nc3ccc(-c4nc(N5CCOCC5)nc(N5CCOCC5)n4)cc3)cc2)CC1 | 0.13 | 0.99 | 0.05 | 0.0932 | 1.18 | 0.472 | 5.33 | 0.451 | 1.73 | 2.66 | 1.39 | 1.83 | 2.56 | 2.09 | 3.1 | 2.48 | 0.111 | 0.167 | 0.112 | 0.162 | 0.0321 | 0.133 | 0.162 | 0.0116 |
| COc1ccc(-c2cc3c(C)nc(N)nc3n([C@H]3CC[C@H](OCCO)CC3)c2=O)cn1 | 0.163 | 0.179 | 0.291 | 1.02 | 0.206 | 0.153 | 0.386 | 0.255 | 1.76 | 1.79 | 1.98 | 2.91 | 1.78 | 1.72 | 2.05 | 2.06 | 0.00335 | 0.067 | 0.0766 | 0.193 | 0.0249 | 0.0289 | 0.0177 | 0.00736 |
| CS(=O)c1ccc(-c2nc(-c3ccc(F)cc3)c(-c3ccncc3)[nH]2)cc1 (stereo not given) | > 10 | 0.142 | > 10 | > 10 | > 10 | > 10 | > 10 | > 10 | 3.47 | 2.51 | 3.43 | 4.51 | 3.69 | 2.98 | 3.37 | 4.33 | 0.774 | 0.577 | 0.84 | 1.12 | 0.931 | 0.713 | 0.892 | 1.06 |
| CC(C)CC(=O)Nc1n[nH]c2c1CN(C(=O)C1CCN(C)CC1)C2(C)C | 0.12 | 0.276 | 0.262 | 1.48 | 1.77 | 3.08 | 4.34 | 1.06 | 1.4 | 1.92 | 1.9 | 2.94 | 2.75 | 2.7 | 3.01 | 3 | 0.0023 | 0.0324 | 0.0129 | 0.00722 | 0.0863 | 0.174 | 0.189 | 0.00653 |
| OCc1ccc(-c2ccc(-c3ccc(CO)s3)o2)s1 | 0.0275 | 0.18 | 0.582 | 7.46 | 0.0112 | 0.0294 | 0.0427 | 0.389 | 1.04 | 1.76 | 2.29 | 3.4 | 0.628 | 1.03 | 1.27 | 2.33 | 0.00113 | 0.0234 | 0.0662 | 0.419 | 0.00454 | 0.032 | 0.056 | 0.0063 |
